Data as given in US20040171594A1, “Use of bis-acid(5-androsten-17-one-3beta-hydroxyl)diester for manufacture pharmaceuticals” (priority 2001, published 2004).
Marks after values point to notes of the source that are not given here.

Experiments:
[1] = tested on: osteoporosis model of rats induced by Retinoic acid; assay: Osteoporosis model of rats induced by Retinoic acid; type: in vivo, SD rats; settings: Retinoic acid 70 mg/kg, specimen orally 30 days (dose not given), right thighbone, n=8
Excerpt: After continuously administering specimen for 30 days, killed rats and took right thighbone of rat.
Took same part tissue of right thighbone, routinely decalcified, enveloped with olefin, and dyed with HE. Observed with ordinary optics microscope, import all imagines into computer with A/D conversion of pickup camera, via dealing with image analysis software obtained index of guide line as follows: relative bone volume, indicating percentage that bone trabecula accounted for medullary cavity, 1.25×10×4 times; average width of bone trabecula, 1.25×10×10 times; amount of cell per area in bone trabecula, gathering same area image (640×480) of bone trabecula with image analysis software, calculating amount of bone cell in corresponding area, 1.25×10×40 times; Average length of bone cell lacuna, 1.25×10×40; Average width of bone cell lacuna, 1.25×10×40. The above five indexes of static state guide-line were all observed for ten eyeshots, calculating their average value.

[2] = tested on: cerebral ischemia-reperfusion injury of mice; assay: Memory step-through test after cerebral ischemia-reperfusion injury; type: in vivo, NIH mice; settings: 4.5 mg/kg intragastric once a day for 10 days, n=10
Protocol: After weighed, NIH mice were anaesthetized with Penbotarbital 60 mg/kg, then performed operation. Fixed at supine position, the skin in the middle of the deck was dissected about 7 mm. Separated common carotid artery of two sides of neck, surrounded with the thread of No “0”. Common carotid artery of two sides was chipped with artery clip for 2 minutes to induce cerebral ischemia. In the end of ischemia treatment, artery clip was loosed and blood perfusion was restored, rest for five minutes, repeated twice as that. After blocking blood flow of carotid, sutured incision. Recorded trail bloodletting, bloodletting quantity was no more than 10% of total blood quantity. After operation, […] were administered with proper physiological saline through intraperitoneal injection in order to supple capacity of blood. After pseudo operation group was anaesthetized, carotid of two sides was separated but blood flow was not blocked, without being bloodletting too.
In experiment appearance of body temperature lowering and righting reflex disappearing was as positive guide-line of ischemia, discarding those without typical guide line of ischemia. In the procedure of ischemia or after operation, some of animals would be dead. […] According to the dose of Table 7, animals were administered with medicine by intragastric intubation once a day, and continue administered drug for 10 days. After 10 days, memory test was performed.

[3] = tested on: arrhythmia of rats induced by BaCl2; assay: Arrhythmia of rats induced by BaCl2; type: in vivo, SD rats; settings: BaCl2 4 mg/kg, within 60 min, n=10
Protocol: 50 male SD rats, weighing (236.7±13.7)g, were anaesthetized with 10% chloral hadrate 0.3 g/kg intraperitoneally, recorded ECG with intubating of external jugular vein administering drug. As soon as injected with BaCl2 4 mg/kg, rats usually emerged VP and VT quickly and developed to be the steady and typical double-aspect arrhythmia. After immediately injected with drug or 0.5% CMC-Na into vein, recorded the time of recovering and maintaining sinus rhythm within 60 min as standard, and compared the function between five groups. […] Time of maintaining sinus rhythm was longer and acted more quickly than that of Amiodarone group.

[4] = tested on: acute renal failure of mice induced by endotoxin; assay: Acute renal failure model induced by endotoxin; type: in vivo, NIH mice; settings: drug 10 mg/kg i.p., endotoxin 0.06 g/kg, after five hours, n=10; for GSH-Px: mice kidney homogenate; for BUN / Cr: mice serum
Protocol: After five hours, blood of the mice was collected by removing eyes, assayed Blood Urea Nitrogen (BUN) and Creatinine (Cr) concentration of serum. One kidney of each […] was taken out and made 100 mL/L homogenate, assayed activity of Glutathione Peroxidase (GSH-Px) enzyme.

[5] = tested on: myocardium injury model of rats induced by ISO; assay: Myocardium injury (myocardial ischemia) model of rats induced by ISO; type: in vivo, SD rats; settings: drug 0.76 mg/kg, n=8; for Σ ST: rats, ISO s.c.
Protocol: SD rats were measured ECG by chest leads before experiment, abandoned those of abnormal or arrhythmia at T wave, ST sect. […] They were divided into four groups according to Table 4, eight rats in each group. As dose of Table 4, tested compounds or 0.5% CMC-Na solution with same volume were administered through duodenum for 30 minutes, rats were anaesthetized with aether. After ECG was recorded, Isoproterenol (ISO) was administered by subcutaneous injection from the back, recorded ECG again after 30 minutes. After specimen was intragastricly granted for 24 hours and 48 hours, every group was administered simples again and recorded ECG again in terms of the methods stated above. After 72 hours, bleeding from the ophthalmic venous plexus and separated blood serum through centrifugation. Killed the rats, scissor the tip of the heart to prepare 10% myocardial tissue homogenate with 4° C. physiological saline as standby.
Measured each rat's value of ST before first administering ISO. And after first, second and third subcutaneous injection for 30 minutes, calculated mv mean value of ΣST as guide line of myocardium injury and performed t test.
The changes of MDA LDH and CK in serum were measured with agent kits.
The changes of MDA, LDH and CK in serum and myocardial tissue homogenate were measured with agent kits.

[6] = tested on: thymus and spleen of mice; assay: Indexes of thymus and spleen of mice injected with cyclophosphamide; type: in vivo, NIH mice; settings: cyclophosphamide 60 mg/kg i.p., drug 10 mg/kg intragastric for 30 days, n=10
Protocol: Chose 90 healthy NIH mice, weighing (18˜22)g, equal amount of male and female. Every mouse was injected with cyclophos phamide (60 mg/kg, intraperitoneally). […] Administered specimen through intragastric intubation in terms of the dose in Table 8. Continuously administered orally specimen for 30 days, all mice fasted on the 30th day, but were supplied with water. On the 31th day, mice of every group were killed. Weighed their body, thymus and spleen, calculated index of thymus and spleen, compared the difference among each group.

[7] = myocardial tissue homogenate of rats with ISO myocardium injury
[8] = serum of rats with ISO myocardium injury, after 72 hours

butanediol-disulphonic acid-(5-androsten-17-one-3β-ol)-diester [Compound I]
Amount of cell per area in bone trabecula [1]: 31.84 ± 3.94
Average width of bone trabecula [1]: 61.37 ± 4.71 μm
Relative bone volume [1]: 29.84 ± 3.56 %
Latency of dark cabin, Memory [2]: 46.5 ± 13.8 s
Latency of dark cabin, Study [2]: 25.7 ± 14.8 s
Number of error [2]: 3.1 ± 1.7 n
time of maintaining sinus rhythm ([3]; drug 0.5 mg/kg into vein): 45.478 ± 5.271 min
time of storing sinus rhythm ([3]; drug 0.5 mg/kg into vein): 6.752 ± 4.132 min
GSH-Px [4]: 37.6 ± 15.1 nU · L^−1
BUN [4]: 344.4 ± 40.6*** 10 mg · L^−1
Cr [4]: 34.41 ± 9.65*** 10 mg · L^−1
Activity of CK [5, 7]: 214.27 ± 40.62 U/L
Activity of LDH [5, 7]: 159.82 ± 31.69 U/L
MDA [5, 7]: 115.02 ± 10.34 nmol/g
Σ ST ([5]; 30 min): 0.49 ± 0.12 mv
Σ ST ([5]; 24 h): 0.54 ± 0.12 mv
Σ ST ([5]; 48 h): 0.50 ± 0.06 mv
Σ ST ([5]; 72 h): 0.54 ± 0.08 mv
Activity of CK [5, 8]: 242.14 ± 22.72 U/L
Activity of LDH [5, 8]: 233.35 ± 18.46 U/L
MDA [5, 8]: 24.64 ± 2.53 nmol/mL
Index of spleen [6]: 69.60 ± 16.10 mg/10 g body weight
Index of thymus [6]: 16.44 ± 3.25 mg/10 g body weight

pentanediol-disulphonic acid-(5-androsten-17-one-3β-ol)-diester [Compound J]
Amount of cell per area in bone trabecula [1]: 29.84 ± 3.16
Average width of bone trabecula [1]: 67.84 ± 4.68 μm
Relative bone volume [1]: 37.55 ± 3.26 %
Latency of dark cabin, Memory [2]: 52.0 ± 17.2 s
Latency of dark cabin, Study [2]: 30.8 ± 15.0 s
Number of error [2]: 3.2 ± 1.6 n
time of maintaining sinus rhythm ([3]; drug 1.5 mg/kg into vein): 51.762 ± 6.275 min
time of storing sinus rhythm ([3]; drug 1.5 mg/kg into vein): 3.584 ± 2.471 min
time of maintaining sinus rhythm ([3]; drug 2.5 mg/kg into vein): 59.248 ± 1.527 min
time of storing sinus rhythm ([3]; drug 2.5 mg/kg into vein): 0.845 ± 1.529 min
GSH-Px [4]: 32.2 ± 13.1 nU · L^−1
BUN [4]: 337.6 ± 32.8*** 10 mg · L^−1
Cr [4]: 37.60 ± 8.44*** 10 mg · L^−1
Activity of CK [5, 7]: 268.28 ± 42.59 U/L
Activity of LDH [5, 7]: 197.45 ± 26.88 U/L
MDA [5, 7]: 95.67 ± 15.67 nmol/g
Σ ST ([5]; 30 min): 0.54 ± 0.12 mv
Σ ST ([5]; 24 h): 0.52 ± 0.07 mv
Σ ST ([5]; 48 h): 0.56 ± 0.07 mv
Σ ST ([5]; 72 h): 0.54 ± 0.08 mv
Activity of CK [5, 8]: 239.40 ± 16.15 U/L
Activity of LDH [5, 8]: 257.05 ± 31.30 U/L
MDA [5, 8]: 26.47 ± 3.25 nmol/mL
Index of spleen [6]: 61.29 ± 15.34 mg/10 g body weight
Index of thymus [6]: 17.24 ± 3.34 mg/10 g body weight
